Patent publication US8906904B2, “Alkoxy pyrazoles as soluble guanylate cyclase activators” (Boehringer Ingelheim International GmbH, priority 2012, dated 2014)

Assay: human liver microsome (HLM) metabolic stability assay
Type: in vitro ADME
Conditions: human liver microsomes; % hepatic blood flow calculated from t1/2
Experimental: The 5 time point, high-throughput human liver microsome (HLM) metabolic stability assay is designed to determine in vitro compound metabolism. Compounds are incubated with HLMs at a concentration of 1 uM, at 37° C., for a total of 60 min. The percent of compound remaining at 5, 15, 30, and 60 min is used to calculate the t½ (min), CLint (mL/min/kg), CLh (mL/min/kg), and % Qh. The assay is based on a 96-well format and can accommodate up to 92 compounds per plate (n=1).
Using the 96-well multi-channel head, the Biomek FX, equipped with a Peltier heating block/shaker, is programmed to accomplish the following steps: • 1. Pipette 175 uL of 1.15 mg/mL microsomes into each of the 96 conical inserts (Analytical Sales and Products, catalog number 96PL05) that fit into the plate of the Peltier heating block/shaker (the incubation plate) • 2. Add 5 uL of compounds from the assay plate to the microsomes and shake the mixture at 600 rpm at 42.1° C. for 10 min (a setting of 42.1° C. on the Peltier is required for the samples to incubate at 37° C.) • 3. After 10 min, prompt the user to add the NADPH plate to the deck and add 20 uL from the NADPH plate to the incubation plate to start the reaction • 4. Add 215 uL of 100%, cold acetonitrile containing an internal standard(s) to a 0 minute, 5 minute, 15 minute, 30 minute, and 60 minute “quench” plate • 5. At 0 min, 5 min, 15 min, 30 min, and 60 min into the incubation, aspirate 12 uL from the incubation mixture and add it to the quench solution to stop the reaction • 6. Add 185 uL HPLC grade water to each well of the 0, 5, 15, 30 and 60 minute quench plates to dilute compounds to the appropriate concentration for the mass spectrometer
After all time points are collected, the quench plates are sealed with 96-well pierceable plate mats or heat sealing foil and centrifuged at 3000 rpm for 15 min to pellet the microsomes.
The plates are analyzed using LC/MS/MS with electron spray ionization (ESI) and the previously determined MRM transitions. The LC method includes the following parameters:
Using an Excel template in Activitybase, the peak areas corresponding to 5, 15, 30 and 60 min are compared to the peak area at 0 min to calculate the percent of remaining compound using the following equation: Percent compound remaining=(AUC at Time t min/AUC at Time 0 min)×100 where t=0, 5, 15, 30 or 60 min.
Time (min) is plotted against the natural logarithm (Ln) of the percent compound remaining to determine the slope. The slope is used to calculate t½ (min) using the equation, t½=0.693/slope.
Preferred compounds have % Qh values of less than 24.

| SMILES | HLM (% Qh) |
| --- | --- |
| COc1c(C(=O)O)cnn1-c1cccc(-c2cccc(Cl)c2OCc2ccc3c(c2)CCN(C2COC2)C3)n1 [Compound 7] | <24 % Qh |
| COc1c(C(=O)O)cnn1-c1cccc(-c2cccc(C)c2OCc2ccc3c(c2)CCN(C2COC2)C3)n1 [Compound 8] | <24 % Qh |
| COc1c(C(=O)O)cnn1-c1cccc(-c2cccc(C(F)(F)F)c2OCc2ccc3c(c2)CCN(C2COC2)C3)n1 [Compound 9] | <24 % Qh |
| COc1c(C(=O)O)cnn1-c1cccc(-c2cccc(C)c2OCc2ccc3c(c2)C(C)(C)CN(C2COC2)C3)n1 [Compound 10] | 30 % Qh |
| COc1c(C(=O)O)cnn1-c1cccc(-c2cccc(C)c2OCc2ccc3c(c2)CCN(CC(F)(F)F)C3)n1 [Compound 11, 5-methoxy-1-(6-{3-methyl-2-[2-(2,2,2-trifluoro-ethyl)-1,2,3,4-tetrahydro-isoquinolin-6-ylmethoxy]-phenyl}-pyridin-2-yl)-1H-pyrazole-4-carboxylic acid] | 47 % Qh |
| COc1c(C(=O)O)cnn1-c1cccc(-c2cccc(C)c2OCc2ccc3c(c2)CCN(CC2(C)COC2)C3)n1 [Compound 12] | <24 % Qh |
| COc1c(C(=O)O)cnn1-c1cccc(-c2cccc(C)c2OCc2ccc3c(c2)CCN(C(C)C)C3)n1 [Compound 13] | <24 % Qh |
| COc1c(C(=O)O)cnn1-c1cccc(-c2cccc(C)c2OCc2ccc3c(c2)CCN(CC(C)(C)C)C3)n1 [Compound 14] | 31 % Qh |
| CCOc1c(C(=O)O)cnn1-c1cccc(-c2cccc(C)c2OCc2ccc3c(c2)CCN(CC2CC(=O)N(C)C2)C3)n1 (centres unmarked) [Compound 97, 5-ethoxy-1-(6-{3-methyl-2-[2-(1-methyl-5-oxo-pyrrolidin-3-ylmethyl)-1,2,3,4-tetrahydro-isoquinolin-6-ylmethoxy]-phenyl}-pyridin-2-yl)-1H-pyrazole-4-carboxylic acid] | <24 % Qh |
| COc1c(C(=O)O)cnn1-c1cccc(-c2ccc(C)cc2OCc2ccc3c(c2)CCN(C2CCOCC2)C3)n1 [Compound 98] | 31 % Qh |
| COc1c(C(=O)O)cnn1-c1cccc(-c2ccc(C)cc2OCc2ccc3c(c2C)CCN(C2CCOCC2)C3)n1 [Compound 99] | <24 % Qh |
| COc1c(C(=O)O)cnn1-c1cccc(-c2cccc(C)c2OCc2ccc3c(c2)CCCN(C2CCOCC2)C3)n1 [Compound 100] | 31 % Qh |
| CCOc1c(C(=O)O)cnn1-c1cccc(-c2cccc(C)c2OCc2ccc3c(c2)CCN(CC2CCCO2)C3)n1 (centres unmarked) [Compound 101, 5-ethoxy-1-(6-{3-methyl-2-[2-(tetrahydro-furan-2-ylmethyl)-1,2,3,4-tetrahydro-isoquinolin-6-ylmethoxy]-phenyl}-pyridin-2-yl)-1H-pyrazole-4-carboxylic acid] | <24 % Qh |
| COc1c(C(=O)O)cnn1-c1cccc(-c2cccc(C)c2OCc2ccc3c(c2)CCN([C@H]2CC[C@]4(CCCO4)CC2)C3)n1 [Compound 102] | <24 % Qh |
| COc1c(C(=O)O)cnn1-c1cccc(-c2cccc(C)c2OCc2ccc3c(c2)CCN([C@H]2CC[C@@]4(CCCO4)CC2)C3)n1 [Compound 103] | 25 % Qh |
| Cc1cccc(-c2cccc(-n3ncc(C(=O)O)c3OC(C)C)n2)c1OCc1ccc2c(c1C)CCN(C1CCOCC1)C2 [Compound 104] | 26 % Qh |
| COc1c(C(=O)O)cnn1-c1cccc(-c2cccc(C)c2OCc2ccc3c(c2C)CCN([C@H]2CCOC2)C3)n1 [Compound 105] | <24 % Qh |
| COc1c(C(=O)O)cnn1-c1cccc(-c2cccc(C)c2OCc2ccc3c(c2C)CCN([C@@H]2CCOC2)C3)n1 [Compound 106] | <24 % Qh |
| CCOc1c(C(=O)O)cnn1-c1cccc(-c2cccc(C)c2OCc2ccc3c(c2)CCN([C@H]2CCOC2)C3)n1 [Compound 110] | <24 % Qh |
| Cc1cccc(-c2cccc(-n3ncc(C(=O)O)c3OC(C)C)n2)c1OCc1ccc2c(c1)CCN([C@H]1CCOC1)C2 [Compound 111] | <24 % Qh |
| CCOc1c(C(=O)O)cnn1-c1cccc(-c2cccc(C)c2OCc2ccc3c(c2)CCN([C@@H]2CCOC2)C3)n1 [Compound 112] | <24 % Qh |
| Cc1cccc(-c2cccc(-n3ncc(C(=O)O)c3OC(C)C)n2)c1OCc1ccc2c(c1)CCN([C@@H]1CCCOC1)C2 [Compound 113] | <24 % Qh |
| CCOc1c(C(=O)O)cnn1-c1cccc(-c2cccc(C)c2OCc2ccc3c(c2C)CCN(C2CCOCC2)C3)n1 [Compound 114] | <24 % Qh |
| Cc1cccc(-c2cccc(-n3ncc(C(=O)O)c3OC(C)C)n2)c1OCc1ccc2c(c1)CCN([C@H]1CCCOC1)C2 [Compound 115] | 25 % Qh |

| SMILES | HLM (% Qh) |
| --- | --- |
| Cc1cccc(-c2cccc(-n3ncc(C(=O)O)c3OC(C)C)n2)c1OCc1ccc2c(c1C)CCN([C@H]1CCCOC1)C2 [Compound 117] | 25 % Qh |
| CCOc1c(C(=O)O)cnn1-c1cccc(-c2cccc(C)c2OCc2cc(C)c3c(c2)CN(C2CCOCC2)C3)n1 [Compound 118] | <24 % Qh |
| CCOc1c(C(=O)O)cnn1-c1cccc(-c2cccc(C)c2OCc2ccc3c(c2C)CN(C2CCOCC2)C3)n1 [Compound 119] | <24 % Qh |
| COc1c(C(=O)O)cnn1-c1cccc(-c2cccc(C)c2OCc2cc(C)c3c(c2C)CCN(C2CCOCC2)C3)n1 [Compound 120] | <24 % Qh |
| COc1c(C(=O)O)cnn1-c1cccc(-c2cccc(C)c2OCc2cc3c(cc2C)CN(C2CCOCC2)CC3)n1 [Compound 121] | <24 % Qh |
| COc1c(C(=O)O)cnn1-c1cccc(-c2cc(C)ccc2OCc2ccc3c(c2C)CCN(C2CCOCC2)C3)n1 [Compound 124] | <24 % Qh |
| CCOc1c(C(=O)O)cnn1-c1cccc(-c2cccc(C)c2OCc2ccc3c(c2C)CCN([C@H]2CCOC2)C3)n1 [Compound 125] | <24 % Qh |
| CCOc1c(C(=O)O)cnn1-c1cccc(-c2cccc(C)c2OCc2ccc3c(c2C)CCN([C@@H]2CCOC2)C3)n1 [Compound 126] | <24 % Qh |
| CCOc1c(C(=O)O)cnn1-c1cccc(-c2cccc(C)c2OCc2ccc3c(c2C)CCN([C@@H]2CCCOC2)C3)n1 [Compound 128] | <24 % Qh |
| CCOc1c(C(=O)O)cnn1-c1cccc(-c2cccc(C)c2OCc2ccc3c(c2C)CCN([C@H]2CCCOC2)C3)n1 [Compound 129] | <24 % Qh |
| COc1c(C(=O)O)cnn1-c1cccc(-c2cccc(C)c2OCc2ccc3c(c2)OCCN(C2CCOCC2)C3)n1 [Compound 130] | 25 % Qh |
| CCOc1c(C(=O)O)cnn1-c1cccc(-c2cccc(C)c2OCc2ccc3c(c2)OCCN(C2CCOCC2)C3)n1 [Compound 131] | 28 % Qh |
| CCCOc1c(C(=O)O)cnn1-c1cccc(-c2cccc(C)c2OCc2ccc3c(c2C)CCN(C2CCOCC2)C3)n1 [Compound 133] | <24 % Qh |
| Cc1cccc(-c2cccc(-n3ncc(C(=O)O)c3OCC(C)C)n2)c1OCc1ccc2c(c1C)CCN(C1CCOCC1)C2 [Compound 134] | 32 % Qh |
| CC[C@H](C)Oc1c(C(=O)O)cnn1-c1cccc(-c2cccc(C)c2OCc2ccc3c(c2C)CCN(C2CCCOC2)C3)n1 (some centres unmarked) [Compound 135] | 29 % Qh |
| CC[C@H](C)Oc1c(C(=O)O)cnn1-c1cccc(-c2cccc(C)c2OCc2ccc3c(c2C)CCN(C2CCOCC2)C3)n1 [Compound 136] | <24 % Qh |
| CC[C@H](C)Oc1c(C(=O)O)cnn1-c1cccc(-c2cccc(C)c2OCc2ccc3c(c2C)CCN(C2CCOC2)C3)n1 (some centres unmarked) [Compound 137] | <24 % Qh |
| COc1c(C(=O)O)cnn1-c1cccc(-c2cccc(C)c2OCc2ccc3c(c2C)CCN(C[C@@H]2COCCO2)C3)n1 [Compound 139] | <24 % Qh |
| COc1c(C(=O)O)cnn1-c1cccc(-c2cccc(C)c2OCc2ccc3c(c2C)CCN([C@@H]2CCCOC2)C3)n1 [Compound 140] | <24 % Qh |
| COc1c(C(=O)O)cnn1-c1cccc(-c2cccc(C)c2OCc2ccc3c(c2C)CCN([C@H]2CCCOC2)C3)n1 [Compound 141] | <24 % Qh |
| COc1c(C(=O)O)cnn1-c1cccc(-c2cccc(C)c2OCc2ccc3c(c2C)CCN(C[C@H]2COCCO2)C3)n1 [Compound 142] | <24 % Qh |
| COc1c(C(=O)O)cnn1-c1cccc(-c2cccc(C)c2OCc2cc3c(cc2C)CN(C2CCOCC2)C3)n1 [Compound 143] | <24 % Qh |
| CC(C)Oc1c(C(=O)O)cnn1-c1cccc(-c2ccccc2OCc2ccc3c(c2)CCN(C2CCOCC2)C3)n1 [Compound 144] | <24 % Qh |
